Measurements taken from patent US8715747B2, “Biocomposition stimulant of the immune system, anti-tumor and anti-HIV” (Pharmabrand S.A., priority 2007, dated 2014).

Columns and labels:
[1] = system: prostate cancer with node metastases and invasion of the bladder floor; experiment: Clinical observation: patient with prostate cancer, tumor markers PSA and CEA; format: in vivo, human; set-up: PSA: unit not given beside the values
Excerpt: The patient is an individual diagnosed with prostate cancer with node metastases and invasion of the bladder floor. […] In March 2003, PSA level was 1096, the carcinoembryonic antigen was 6.85.
Carcinoembryonic antigen is a substance that usually only appears during fetal development and reappears again in adults who develop certain types of cancer: colon, rectum, stomach, esophagus, liver, pancreas, bladder, and breast (female mammary gland), lung and prostate as well.
The test of carcinoembryonic antigen (CEA) plays an important role in monitoring patient outcomes with cancer and metastasis. Even though it can not be considered a final marker, it serves as a useful guide. Its constant increase means that therapy has not achieved positive results. A decrease indicates a trend towards regression of the lesion.
The patient starts with a daily dose of 250 mg of Flutamide (fluxus) until reaching a PSA of 252. After 4 months, PSA reaches 525. From this point, the patient receives a double dose of Flutamide until registering a PSA of 256. CEA level was 5.84. After three months PSA rises again to 580. The tumor becomes resistant to hormone therapy. […] At first, PSA level was 600 and CEA level was 8.86. […] CEA level has dropped to 6.51. PSA level has changed to 700, a much better value if compared to the resistance to flutamide.
The patient underwent surgery to improve the diameter of the urethra and to remove the catheter that started to produce frequent bleeding. After the surgery, the patient suffered a massive infection due to Escherichia coli bacteria. They received anti-bacterial treatment with good results. PSA reached 698. After the surgery, the administration of the composition of the invention re-started, and after 2 months, PSA dropped to 88 and CEA to 5.04. During the following 2 months, PSA level reached 10 ng/ml level. After 70 days, PSA registers 4 ng/ml levels, which are considered normal values. CEA level was 3.97. Currently, the patient has returned to work (August, 2005). They had also had dialysis due to complications during the surgery. The patient has been taking the composition in daily basis during the next two years, maintaining a good health condition. Despite the three dialysis sessions per week that they are receiving, […] general state is good; they manage to do everything by themself and exercises every morning; PSA is 15 but CEA has always been 2.5 ng/ml. During these two years (March, 2007), they have kept a strict diet and has not received any other type of anti-tumor therapy.

[2] = system: S. aureus; experiment: Microbiological test for bactericidal properties (inhibition halo), S. aureus; format: cell-based, Staphylococcus aureus; conditions: Gentamicin 2 μg/ml
Excerpt: Microbiological Tests to Determine Bactericidal Properties of the Aqueous and Ethanolic Extracts of the Composition of the Invention:
The inhibitory halo of FT001 registered a diameter of approximately 12 mm.

CC(C)C(=O)Nc1ccc([N+](=O)[O-])c(C(F)(F)F)c1 [Flutamide]
PSA ([1]; 250 mg Flutamide daily, after 4 months): 525 | PSA ([1]; daily dose of 250 mg Flutamide, start PSA 1096): 252 | CEA level ([1]; double dose of Flutamide): 5.84 | PSA ([1]; double dose of Flutamide): 256 | PSA ([1]; double dose of Flutamide, after three months, PSA rises again): 580

Gentamicin
halo of the lower standard [2]: 12.2 mm
